PubChem BioAssay AID1963958 (Molecular Pharmacology Branch, DTP, NCI, 2024)

Tested on: MDA-MB-231 multicell spheroids, viability
Experiment: Anticancer human tumor MDA-MB-231 cell line growth inhibition [PI3K];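 note: spheroids exposed to agents for seven days before reading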;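 for viability, T/C: percent of vehicle control luminescence with DMSO treated spheroids as 100%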
Settings: for IC50: curve of first compound; for viability, T/C: stronger effect = lower value
Source text: Combinatorial screen of targeted agents with the PI3K inhibitors inavolisib, alpelisib, duvelisib, and copanlisib in multi-cell type tumor spheroids
A high-throughput screen of multi-cell type tumor spheroids was designed to identify active combinations of targeted small molecules and PI3K pathway inhibitors. Complex spheroids include a stromal component modeled by human endothelial cells (HUVEC) and fibroblasts modeled by human mesenchymal stem cells (MSCs). The concentration ranges selected for each drug and investigational agent were based upon clinically achievable concentrations if the clinical Cmax of the agent was known.
Compounds. The drugs and investigational agents: inavolisib (NSC800729), alpelisib (NSC765974), duvelisib (NSC772469), copanlisib (NSC816437), ipatasertib (NSC767898), afuresertib (NSC778305), talazoparib (NSC767125), sapanisertib (NSC764658), selumetinib (NSC741078), tovorafenib (DAY101, NSC766906), vemurafenib (NSC761431), ravoxertinib (NSC781343), sotorasib (NSC818433), MRTX1133 (NSC 836407), abemaciclib (NSC 768073), palbociclib (NSC758247), venetoclax (NSC 766270), SY5609 (NSC837396), enzalutamide (NSC755605), and darolutamide (NSC825331), were obtained from the National Cancer Institute (NCI) Developmental Therapeutics Program Chemical Repository. The FDA-approved anticancer drug set is available from the NCI Developmental Therapeutics Program. […] The stock solutions were prepared in dimethyl sulfoxide (DMSO, Sigma-Aldrich, St. Louis, MO, cat. D2650) at 800-fold the tested concentration and stored at -70 degrees C prior to their use. All drugs and investigational agents were tested over a range starting from a high concentration at or near the clinical Cmax and decreasing in half-log increments. If the clinical Cmax for an agent had not been determined, the highest concentration tested was 10 microM.
Cell Culture. All cells were maintained in an incubator at 37 degrees C and 5% CO2 with 95% humidity. The PDC lines were cultured according to standard operating procedures established by the NCI PDMR (https://pdmr.cancer.gov/sops/default.htm). All PDCs were thawed and cultured in Matrigel-coated flasks prepared with a working solution of 1X Ham's F-12 nutrient mix, without supplementation (Invitrogen, Waltham, MA, cat. 11765054), 100 U/mL penicillin-streptomycin (Invitrogen, cat. 15140122), and 2.5% Matrigel (Corning Inc., Corning, NY, cat. 354248) for the first three passages. The 354836-022-R-J1-PDC, 475296-252-R-J1-PDC, and 997726-040-R-J2-PDC lines were cultured in 6A media, which includes advanced DMEM/F-12 (Thermo Fisher Scientific, cat. 12634028), 10 mM HEPES (Thermo Fisher Scientific, cat. 15630080), 1X GlutaMAX supplement (Thermo Fisher Scientific, cat. 35050061), 0.1 mg/mL primocin (InvivoGen, San Diego, CA, cat. ant-pm-2), 10% defined fetal bovine serum, heat inactivated (HyClone Laboratories Inc., Logan, UT, cat. SH30070.03HI), 50% L-WRN conditioned media (ATCC, cat. CRL-3276), 1.25 mM N-Acetyl-L-cysteine (Sigma-Aldrich, cat. A9165), 10 mM nicotinamide (Sigma-Aldrich, cat. N0636), 1X B-27 supplement (Thermo Fisher Scientific, cat. 17504044), 1X N-2 supplement (Thermo Fisher Scientific, cat. 17502048), and 10 microM Y-27632 dihydrochloride (Tocris Bioscience, Bristol, United Kingdom, cat. 1254). The 624824-186-R-J2-PDC line was cultured in 6C/Colon 1B media, which includes all 6A media components plus 50 ng/mL human EGF recombinant protein (Thermo Fisher Scientific, cat. PHG0311). […]

IC50 (second compound 0.0316 µM): 7.63 µM
IC50 (second compound 0.1 µM): 6.69 µM
IC50 (second compound 0.316 µM): 4.73 µM
IC50 (second compound 1 µM): 4.4 µM
IC50 (second compound 3.16 µM): 4.09 µM
IC50 (second compound 10 µM): 3.7 µM
Structure (SMILES): CC(C)NCC(C(=O)N1CCN(c2ncnc3c2C(C)CC3O)CC1)c1ccc(Cl)cc1 (configuration not stated) + Cc1nc(NC(=O)N2CCCC2C(N)=O)sc1-c1ccnc(C(C)(C)C(F)(F)F)c1
viability, T/C (second compound 0.0316 µM, first compound 0.0316 µM): 95.8%
viability, T/C (second compound 0.0316 µM, first compound 0.1 µM): 95.9%
viability, T/C (second compound 0.0316 µM, first compound 0.316 µM): 82.7%
viability, T/C (second compound 0.0316 µM, first compound 1 µM): 83.5%
viability, T/C (second compound 0.0316 µM, first compound 3.16 µM): 66.9%
viability, T/C (second compound 0.0316 µM, first compound 10 µM): 44.2%
viability, T/C (second compound 0.1 µM, first compound 0.0316 µM): 84.8%
viability, T/C (second compound 0.1 µM, first compound 0.1 µM): 79.9%
viability, T/C (second compound 0.1 µM, first compound 0.316 µM): 71.4%
viability, T/C (second compound 0.1 µM, first compound 1 µM): 73.5%
viability, T/C (second compound 0.1 µM, first compound 3.16 µM): 64%
viability, T/C (second compound 0.1 µM, first compound 10 µM): 42.5%
viability, T/C (second compound 0.316 µM, first compound 0.0316 µM): 72.6%
viability, T/C (second compound 0.316 µM, first compound 0.1 µM): 77.8%
viability, T/C (second compound 0.316 µM, first compound 0.316 µM): 73.4%
viability, T/C (second compound 0.316 µM, first compound 1 µM): 63.4%
viability, T/C (second compound 0.316 µM, first compound 3.16 µM): 55%
viability, T/C (second compound 0.316 µM, first compound 10 µM): 42.6%
viability, T/C (second compound 1 µM, first compound 0.0316 µM): 70.7%
viability, T/C (second compound 1 µM, first compound 0.1 µM): 66.6%
viability, T/C (second compound 1 µM, first compound 0.316 µM): 63.7%
viability, T/C (second compound 1 µM, first compound 1 µM): 60.4%
viability, T/C (second compound 1 µM, first compound 3.16 µM): 55.6%
viability, T/C (second compound 1 µM, first compound 10 µM): 40.4%
viability, T/C (second compound 3.16 µM, first compound 0.0316 µM): 73.7%
viability, T/C (second compound 3.16 µM, first compound 0.1 µM): 66.4%
viability, T/C (second compound 3.16 µM, first compound 0.316 µM): 64.3%
viability, T/C (second compound 3.16 µM, first compound 1 µM): 60.6%
viability, T/C (second compound 3.16 µM, first compound 3.16 µM): 54.3%
viability, T/C (second compound 3.16 µM, first compound 10 µM): 40.4%
viability, T/C (second compound 10 µM, first compound 0.0316 µM): 68.7%
viability, T/C (second compound 10 µM, first compound 0.1 µM): 65.5%
viability, T/C (second compound 10 µM, first compound 0.316 µM): 61.3%
viability, T/C (second compound 10 µM, first compound 1 µM): 59.9%
viability, T/C (second compound 10 µM, first compound 3.16 µM): 53.4%
viability, T/C (second compound 10 µM, first compound 10 µM): 37.8%
